Measured values: US4420484A, “Basic amino or ammonium antimicrobial agent-polyethylene glycol ester surfactant-betaine and/or amine oxide surfactant compositions and method of use therof” (Sterling Drug Inc., priority 1981, dated 1983)

Tested on: Staphylococcus aureus ATCC 6538
Assay: Compatibility with prototype vehicle, serial dilution test (MIC)
Type: cell-based
Conditions: Id expressed as free base, IVa-IVc expressed as cation, 16-18 h, 37° C
Experimental: Compatability of the antimicrobial agents of Formula Id, Formula IIa, Formula IVa (A=Br), Formula IVb (A=Br) and Formula IVc (A=Br) with a prototype vehicle of the invention was tested by a serial dilution test against Staphylococcus aureus ATCC 6538. Volumes of two milliliters were used. Dilutions were in tryptose-phosphate broth. Incubation was for 16-18 hours at 37° C. Growth was verified with 2,3,5-triphenyltetrazoliumchloride. The inoculum was 1.8×10^5 viable cells per tube. There follows the formula of the prototype vehicle. […]

| Compound | Minimum Inhibitory Concentration (MIC) (added vehicle 0 μg/ml) | Minimum Inhibitory Concentration (MIC) (added vehicle 15.6 μg/ml) | Minimum Inhibitory Concentration (MIC) (added vehicle 31.2 μg/ml) | Minimum Inhibitory Concentration (MIC) (added vehicle 62.5 μg/ml) | Minimum Inhibitory Concentration (MIC) (added vehicle 125.0 μg/ml) | Minimum Inhibitory Concentration (MIC) (added vehicle 250.0 μg/ml) | Minimum Inhibitory Concentration (MIC) (added vehicle 500.0 μg/ml) | Minimum Inhibitory Concentration (MIC) (added vehicle 1000.0 μg/ml) | Minimum Inhibitory Concentration (MIC) (added vehicle 2000.0 μg/ml) | Minimum Inhibitory Concentration (MIC) (added vehicle 4000.0 μg/ml) | Minimum Inhibitory Concentration (MIC) (added vehicle 8000.0 μg/ml) |
| --- | --- | --- | --- | --- | --- | --- | --- | --- | --- | --- | --- |
| CCCCCCCCCCCCCC[N+](C)(C)Cc1ccccc1 [Compound of Formula IIa, benzalkonium chloride, reference compound] | 0.5 µg/mL | 0.5 µg/mL | 0.5 µg/mL | 0.5 µg/mL | 0.5 µg/mL | 0.5 µg/mL | 0.5 µg/mL | 1.0 µg/mL | 1.0 µg/mL | 1.95 µg/mL | 1.95 µg/mL |
| CCCCCCCN=c1ccn(CCCCCCCCCCCCn2ccc(=NCCCCCCC)cc2)cc1 [Compound of Formula IVa] | 0.39 µg/mL | 0.195 µg/mL | 0.39 µg/mL | 0.39 µg/mL | 0.10 µg/mL | 0.10 µg/mL | 0.10 µg/mL | 0.195 µg/mL | 0.10 µg/mL | 0.195 µg/mL | 0.10 µg/mL |
| CCCCCCCCN=c1ccn(CCCCCCCCCCn2ccc(=NCCCCCCCC)cc2)cc1 [Compound of Formula IVb] | 0.5 µg/mL | 0.5 µg/mL | 0.5 µg/mL | 0.5 µg/mL | 0.5 µg/mL | 0.25 µg/mL | 0.125 µg/mL | 0.125 µg/mL | 0.125 µg/mL | 0.25 µg/mL | 0.25 µg/mL |
| CCCCC(CC)CN=c1ccn(CCCCCCCCCCCCn2ccc(=NCC(CC)CCCC)cc2)cc1 (stereo not shown) [Compound of Formula IVc] | 0.25 µg/mL | 0.25 µg/mL | 0.25 µg/mL | 0.25 µg/mL | 0.125 µg/mL | 0.0625 µg/mL | 0.125 µg/mL | 0.125 µg/mL | 0.125 µg/mL | 0.25 µg/mL | 0.25 µg/mL |
| CCCCCCCNC(=N)NC(=N)NCCCCCCNC(=N)NC(=N)NCCCCCCC [Compound of Formula Id] | 0.25 µg/mL | 0.25 µg/mL | 0.25 µg/mL | 0.25 µg/mL | 0.25 µg/mL | 0.25 µg/mL | 0.25 µg/mL | 0.25 µg/mL | 0.50 µg/mL | 0.50 µg/mL | 0.50 µg/mL |
